Ten compounds from ChEMBL document CHEMBL1153655, “Rational design and synthesis of a novel, selective class of thrombin inhibitors: P1-argininal derivatives incorporating P3P4 quaternary lactam dipeptide surrogates” (Bioorg Med Chem Lett, 1997) can be followed below.

One assay has as its target Serine protease 1 (Homo sapiens, UniProt P07477). The assay is described as follows: The compound was tested in vitro for inhibitory activity against human trypsin.
Assay [1] addresses T1, Coagulation factor X (Homo sapiens, UniProt P00742). The assay is described as follows: The compound was tested in vitro for inhibitory activity against Coagulation factor X.
The next assay concerns the target Prothrombin (Homo sapiens, UniProt P00734). In words: The compound was tested in vitro for inhibitory activity against Coagulation factor II.
Assay [2] addresses T1, Coagulation factor X. In words: The compound was tested in vitro for inhibitory activity against Coagulation factor X; inactive.
For assay [3], the target named is T1, Coagulation factor X. The assay is described as follows: The compound was tested in vitro for inhibitory activity against Coagulation factor X; Inactive.

Sequence of Serine protease 1 (P07477 whole entry): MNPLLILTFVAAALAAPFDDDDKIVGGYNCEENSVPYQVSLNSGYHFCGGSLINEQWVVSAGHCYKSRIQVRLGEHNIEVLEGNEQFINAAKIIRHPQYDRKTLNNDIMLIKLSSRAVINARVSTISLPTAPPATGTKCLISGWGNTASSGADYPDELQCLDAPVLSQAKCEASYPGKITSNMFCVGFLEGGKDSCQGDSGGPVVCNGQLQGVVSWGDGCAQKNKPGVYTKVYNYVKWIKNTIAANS
T1 sequence (P00742 41-179 limits assumed): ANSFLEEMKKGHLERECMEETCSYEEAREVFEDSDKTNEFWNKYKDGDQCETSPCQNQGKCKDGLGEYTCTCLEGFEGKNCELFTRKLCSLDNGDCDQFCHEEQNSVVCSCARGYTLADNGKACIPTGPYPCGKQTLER
T1 sequence (P00742 235-488 limits assumed): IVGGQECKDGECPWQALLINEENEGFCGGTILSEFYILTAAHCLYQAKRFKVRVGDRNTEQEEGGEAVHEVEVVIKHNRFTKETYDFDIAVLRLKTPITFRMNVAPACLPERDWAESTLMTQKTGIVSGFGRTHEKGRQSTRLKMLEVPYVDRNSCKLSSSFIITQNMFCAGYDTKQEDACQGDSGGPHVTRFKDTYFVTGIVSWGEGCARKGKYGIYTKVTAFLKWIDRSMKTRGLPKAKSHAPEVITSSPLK

On to `N=C(N)N1CCC[C@H](NC(=O)CN2CCC(NS(=O)(=O)Cc3ccccc3)C2=O)C1O` (some centres undefined), for which the half-inhibitory concentration (IC50) at Serine protease 1 was 538 nM; against Coagulation factor X [1], over 2500 nM; against Prothrombin it was 125 nM.

For `N=C(N)N1CCC[C@H](NC(=O)CN2CCC[C@](N)(Cc3ccccc3)C2=O)C1O.O=C(O)C(F)(F)F` (some centres undefined), the IC50 at Serine protease 1 was 2500 nM; against Prothrombin it was 138 nM; against Coagulation factor X [2], “Not Active”.

As to `COC(=O)NC1(Cc2ccccc2)CCCCN(CC(=O)N[C@H]2CCCN(C(=N)N)C2O)C1=O` (some centres undefined), the IC50 came out at 2500 nM at Serine protease 1, 2500 nM on Coagulation factor X [1] and 466 nM against Prothrombin.

Take `N=C(N)N1CCC[C@H](NC(=O)CN2CCCC[C@@](N)(Cc3ccccc3)C2=O)C1O` (some centres undefined): the results for the 50% inhibitory concentration (IC50) at Serine protease 1, against Coagulation factor X [1] and on Prothrombin were 969 nM, over 2500 nM and 14.9 nM, respectively.

For the compound `N=C(N)N1CCC[C@H](NC(=O)CN2CCCC[C@H](NS(=O)(=O)Cc3ccccc3)C2=O)C1O` (some centres undefined), the 50% inhibitory concentration (IC50) against Serine protease 1 is 152 nM; against Coagulation factor X [1], 22.8 nM; on Prothrombin, 0.71 nM.

`N=C(N)N1CCC[C@H](NC(=O)CN2CC[C@@](N)(Cc3ccccc3)C2=O)C1O` (some centres undefined): the half-inhibitory concentration (IC50) at Serine protease 1 was determined as 1380 nM; at Coagulation factor X [1], 2500 nM; on Prothrombin it was 1380 nM.

For the compound `CS(=O)(=O)NC1(Cc2ccccc2)CCCN(CC(=O)N[C@H]2CCCN(C(=N)N)C2O)C1=O` (some centres undefined), the concentration for half-maximal inhibition (IC50) against Serine protease 1 was 52.2 nM; on Coagulation factor X [1], over 2500 nM; against Prothrombin, 31.9 nM.

For `N=C(N)N1CCC[C@H](NC(=O)CN2CCC[C@@](N)(Cc3ccccc3)C2=O)C1O.O=C(O)C(F)(F)F` (some centres undefined), the values for the IC50 against Serine protease 1, on Prothrombin and on Coagulation factor X [3] were 139 nM, 2.07 nM and “Not Active”, respectively.

In the case of `N=C(N)N1CCC[C@H](NC(=O)CN2CCCC[C@](N)(Cc3ccccc3)C2=O)C1O.O=C(O)C(F)(F)F` (some centres undefined), the 50% inhibitory concentration (IC50) against Serine protease 1 is 2500 nM; against Prothrombin it was 193 nM; against Coagulation factor X [3] it was “Not Active”.

For the compound `N=C(N)N1CCC[C@H](NC(=O)CN2CCC[C@H](NS(=O)(=O)Cc3ccccc3)C2=O)C1O` (some centres undefined), the 50% inhibitory concentration (IC50) was 1270 nM at Serine protease 1 and over 2500 nM on Coagulation factor X [1].
